Several values for one entry are separate records, joined by “and”; a condition that tells them apart may be missing. Equal entries are not always repeated.
Legend:
[1] = test system: Rattus norvegicus; test: In vivo Sterol lowering activity at dose as 0.03 % of the diet.; format: functional
[2] = test system: Rattus norvegicus; test: In vivo Sterol lowering activity at dose as 0.10 % of the diet.; format: functional
[3] = test system: Rattus norvegicus; test: In vivo Triglyceride lowering activity at dose as 0.10 % of the diet.; format: functional
[4] = test system: Rattus norvegicus; test: In vivo Triglyceride lowering activity at dose as 0.01 % of the diet.; format: functional
[5] = target: T1, Sterol O-acyltransferase 1 (Rattus norvegicus) (UniProt O70536); test: In vitro inhibitory activity against acyl coenzyme A:cholesterol acyltransferase; design: concentration or dose not given beside the values; conditions: concentration not given here
T1 sequence (whole entry): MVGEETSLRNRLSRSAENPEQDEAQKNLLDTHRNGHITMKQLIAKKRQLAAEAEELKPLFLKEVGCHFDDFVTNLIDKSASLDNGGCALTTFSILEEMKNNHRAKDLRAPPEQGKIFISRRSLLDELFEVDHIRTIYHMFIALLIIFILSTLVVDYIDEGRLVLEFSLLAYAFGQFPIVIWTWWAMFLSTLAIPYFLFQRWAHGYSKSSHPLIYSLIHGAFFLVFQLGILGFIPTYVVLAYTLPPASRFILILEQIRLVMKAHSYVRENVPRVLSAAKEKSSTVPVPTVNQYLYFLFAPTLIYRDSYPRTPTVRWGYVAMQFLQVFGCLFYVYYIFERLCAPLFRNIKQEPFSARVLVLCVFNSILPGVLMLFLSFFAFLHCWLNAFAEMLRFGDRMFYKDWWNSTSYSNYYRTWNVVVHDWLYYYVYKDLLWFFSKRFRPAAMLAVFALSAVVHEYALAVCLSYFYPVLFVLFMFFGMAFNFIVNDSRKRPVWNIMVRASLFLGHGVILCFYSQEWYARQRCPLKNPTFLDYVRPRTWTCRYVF

[6] = test system: Rattus norvegicus; test: In vivo Triglyceride lowering activity at dose as 0.03 % of the diet.; format: functional
[7] = test system: Rattus norvegicus; test: In vivo Sterol lowering activity at dose as 0.01 % of the diet.; format: functional
[8] = test system: Rattus norvegicus; test: In vivo Triglyceride lowering activity at a dose of 0.10 % of the diet; format: functional
[9] = test system: Rattus norvegicus; test: In vivo Triglyceride lowering activity at dose as 0.01 % of the diet; format: functional
[10] = test system: Rattus norvegicus; test: In vivo sterol lowering activity, dosed as 0.03 % of the diet; format: functional
[11] = test system: Rattus norvegicus; test: In vivo sterol lowering activity at dose of 0.10 % of the diet; format: functional
[12] = test system: Rattus norvegicus; test: In vivo Triglyceride lowering activity at dose as 0.03 % of the diet; format: functional
[13] = test system: Rattus norvegicus; test: In vivo Sterol lowering activity at dose as 0.01% of the diet; format: functional

Row | SMILES | inhibition [5] | Diet [1] [%] | Diet [2] [%] | Diet [3] [%] | Diet [4] [%] | Diet [6] [%] | Diet [7] [%] | serum triglyceride level (% of control) [8] [%] | serum triglyceride level (% of control) [9] [%] | serum sterol level, percent of control [10] [%] | serum sterol level, % of control [11] [%] | triglyceride lowering activity [12] [%] | serum sterol level, percent of control [13] [%]
1 | O=C(O)c1ccc(NCCC2CCCC2)cc1 | – | 94 | 88 | – | 78 | 83 | 92 | 64 | – | – | – | – | –
2 | N#CCCCNc1ccc(C(=O)O)cc1 | 8% | – | 94 | 93 | – | – | – | – | – | – | – | – | –
3 | CCOC(=O)CCCCCNc1ccc(C(=O)OCC)cc1 | 18% | 92 | 84 | 71 | 68 | 72 | 96 | – | – | – | – | – | –
4 | NC(=O)CNc1ccc(C(=O)O)cc1 | 17% | – | 100 | 102 | – | – | – | – | – | – | – | – | –
5 | O=C(O)CNc1ccc(C(=O)O)cc1 | 18% | 87 | 98 | 106 | 90 | 93 | 89 | – | – | – | – | – | –
6 | O=C(O)c1ccc(NCC2CCCCC2)cc1 | 1% | – | – | – | – | – | 95 | 62 | 73 | 84 | 83 | 71 | –
7 | CCOC(=O)c1ccc(N2CCCC2=O)cc1 | 6% | – | – | 72 | – | – | – | – | – | – | 84 | – | –
8 | CCOC(=O)CN(CC(=O)OCC)c1ccc(C(=O)OCC)cc1 | 32% | 98 | 100 | 122 | 77 | 120 | 93 | – | – | – | – | – | –
9 | O=C(O)c1ccc(NCCCCCCCCCCCSCc2ccccc2)cc1 | < 54% | – | – | – | – | – | – | <51 | <55 | 95 | 90 | <52 | 99
10 | CCOC(=O)c1ccc(NCCCCCCCCCCCCCCCCSC(C)=O)cc1 | 0% | – | – | – | – | – | – | <57 | 91 | 96 | 93 | 75 | 98

The next lines start with results.

Row | inhibition [5] | SMILES | Diet [1] [%] | Diet [2] [%] | Diet [3] [%] | Diet [4] [%] | Diet [6] [%] | Diet [7] [%] | serum triglyceride level (% of control) [8] [%] | serum triglyceride level (% of control) [9] [%] | serum sterol level, percent of control [10] [%] | serum sterol level, % of control [11] [%] | triglyceride lowering activity [12] [%] | serum sterol level, percent of control [13] [%]
11 | 24% | CCOC(=O)CNc1ccc(C(=O)OCC)cc1 | 100 | 100 | 121 | 109 | 114 | 90 | – | – | – | – | – | –
12 | 14% | O=C(O)CN(CC(=O)O)c1ccc(C(=O)O)cc1 | 89 | 91 | 100 | 92 | 84 | 95 | – | – | – | – | – | –
13 | 26% | CCOC(=O)c1ccc(NCCCC#N)cc1 | 118 | 109 | 97 | 131 | 113 | 116 | – | – | – | – | – | –
14 | 0% | O=C(O)CCCNc1ccc(C(=O)O)cc1 | – | 99 | 86 | – | – | – | – | – | – | – | – | –
15 | 0% | CCCC(Nc1ccc(C(=O)O)cc1)C(=O)O (stereo unspecified) | – | – | – | 93 | 74 | 95 | – | – | 87 | – | – | –
16 | 6% and 0% | O=C(O)CCNc1ccc(C(=O)O)cc1 | 118 | 100 | – | 97 | 108 | 101 | 72 | – | – | – | – | –
17 | 60% | CCOC(=O)c1ccc(NCCC2CCCC2)cc1 | – | 96 | – | – | – | – | 69 | – | – | – | – | –
18 | 11% | CCOC(=O)CCCNc1ccc(C(=O)OCC)cc1 | – | 93 | 103 | – | – | – | – | – | – | – | – | –
19 | < 40% | CCCCSCCCCCCCCCCCNc1ccc(C(=O)O)cc1 | – | – | – | – | – | – | <62 | 79 | 91 | <78 | <71 | 91
